Where two headings read alike, the source gives them in different places. Values belong to the molecule of their own block, whether it stands above or below them.
Assays:
TYK2 JH2 pseudokinase = TYK2 JH2 pseudokinase (Homo sapiens, UniProt P29597); experiment: In vitro TYK2 JH2 enzyme binding assay (TR-FRET)
[1] = test system: IL-2-induced STAT5 phosphorylation (JAK1/3) in CD3+ cells of human PBMC; experiment: IL-2-induced STAT5 phosphorylation (JAK1/3) in CD3+ cell subpopulations in human PBMC, flow cytometry; format: cell-based; conditions: IL-2 stimulation 20 min, read-out: IL-2-induced CD3+ pSTAT5 (JAK1/3) in hPBMC (IC50)
Protocol: Purpose: The purpose of this test case was to test the inhibitory effect of the compound on IL-2-induced STAT5 phosphorylation using protein phosphorylation flow cytometric analysis technology.
Human PBMC cells were pre-incubated with the compounds, STAT5 was induced to phosphorylate under appropriate stimulation conditions, and corresponding cell subpopulations and targets were stained. Flow cytometry was used to read cell data and analyze the strength of phosphorylated antibody signals under different compound concentrations. PBMCs were resuspended and dispensed into a 96-well plate, 62.5 μL/well. 3.5 μL of 20× compound working solutions were added and incubated at 37° C. for 30 minutes. 5 μL of PE mouse anti-human CD3 (BD) was added and incubated for 30 min at 37° C. in the dark. 4 μL of 20×IL-2 (R&D) was added to each well and incubated at 37° C. in the dark for 20 minutes. All cells in the 96-well plate were transferred to a deep-well plate, 400 μL of a fixation working solution (Biolegend) was added to each well, and incubated at room temperature in the dark for 20 minutes. The cells were washed twice with PBS, and 400 μL of Perm Buffer III (BD) was added and incubated at 4° C. in the dark for 40 minutes. The cells were washed twice with PBS, and 100 μL of a STAT5 pY694 antibody working solution (BD) was added and incubated at room temperature for 40 minutes. After washing once with PBS, the cells were resuspended in 200 μL of a staining buffer and transferred to a sample plate. The antibody fluorescence intensity was analyzed using FlowJo software, and the IC50 of the compound was calculated using XL-Fit software.

JAK1 JH1 = target: T1, JAK1 JH1 (Homo sapiens, UniProt P23458); experiment: JAK1 JH1 kinase inhibition (HTRF); format: biochemical; conditions: read-out: Inhibition on kinase activity (IC50, μM) JAKI JHI
T1 construct: 5 μL/well of 2×JAK1 JH1/JAK2 JH1/JAK3 JH1/TYK2 JH1 kinase solutions

JAK2 JH1 = target: T2, JAK2 JH1 (Homo sapiens, UniProt O60674); experiment: JAK2 JH1 kinase inhibition (HTRF); format: biochemical; conditions: read-out: Inhibition on kinase activity (IC50, μM) JAK2 JHI
T2 construct: 5 μL/well of 2×JAK1 JH1/JAK2 JH1/JAK3 JH1/TYK2 JH1 kinase solutions
Protocol: (§1) After the completion of incubation, 5 μL of a mixed solution containing a 2×TK-SUB-biotin substrate and ATP was added to each well, uniformly mixed by centrifugation, and incubated at 25° C. for 45 minutes (JAK1/JAK2) or 60 minutes (JAK3/TYK2). After completion of incubation, 10 μL of an assay mixture (TK Antibody-EU and Streptavidin-XL mixture) was added to each well, uniformly mixed by centrifugation, and incubated at 25° C. for 60 minutes (JAK1/JAK2) or 120 minutes (JAK3/TYK2). After completion of incubation, the solutions were transferred to a 4° C. freezer for incubation overnight, and fluorescence values were read on an Envision 2104 Multilabel Reader, and the IC50 of the compound was calculated using XL-Fit software.

JAK3 JH1 = target: T3, JAK3 JH1 (Homo sapiens, UniProt P52333); experiment: JAK3 JH1 kinase inhibition (HTRF); format: biochemical; conditions: read-out: Inhibition on kinase activity (IC50, μM) JAK3 JHI
T3 construct: 5 μL/well of 2×JAK1 JH1/JAK2 JH1/JAK3 JH1/TYK2 JH1 kinase solutions
Protocol: as §1

TYK2 JH1 = target: T4, TYK2 JH1 (Homo sapiens, UniProt P29597); experiment: TYK2 JH1 kinase inhibition (HTRF); format: biochemical; conditions: read-out: Inhibition on kinase activity (IC50, μM) TYK2 JHI
T4 construct: 5 μL/well of 2×JAK1 JH1/JAK2 JH1/JAK3 JH1/TYK2 JH1 kinase solutions
T4 sequence (P29597 897-1176 limits assumed): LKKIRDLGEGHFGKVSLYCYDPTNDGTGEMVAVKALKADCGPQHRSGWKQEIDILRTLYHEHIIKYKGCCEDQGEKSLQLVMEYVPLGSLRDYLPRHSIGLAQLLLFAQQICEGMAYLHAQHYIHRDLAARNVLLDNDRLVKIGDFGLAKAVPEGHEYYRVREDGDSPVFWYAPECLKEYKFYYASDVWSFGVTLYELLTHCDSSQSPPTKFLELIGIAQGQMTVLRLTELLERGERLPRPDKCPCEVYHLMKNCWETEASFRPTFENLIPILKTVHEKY
Protocol: as §1

Chain of TYK2 JH2 pseudokinase (P29597 589-875 limits assumed): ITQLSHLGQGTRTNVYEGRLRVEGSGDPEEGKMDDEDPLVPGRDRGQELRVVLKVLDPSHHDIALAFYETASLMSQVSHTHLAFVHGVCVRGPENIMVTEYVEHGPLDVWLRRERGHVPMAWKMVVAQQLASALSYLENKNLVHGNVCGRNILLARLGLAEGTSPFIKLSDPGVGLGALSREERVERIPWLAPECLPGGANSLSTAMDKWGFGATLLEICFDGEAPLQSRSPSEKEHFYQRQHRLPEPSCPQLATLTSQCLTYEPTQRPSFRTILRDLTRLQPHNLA
T1 sequence (P23458 875-1153 limits assumed): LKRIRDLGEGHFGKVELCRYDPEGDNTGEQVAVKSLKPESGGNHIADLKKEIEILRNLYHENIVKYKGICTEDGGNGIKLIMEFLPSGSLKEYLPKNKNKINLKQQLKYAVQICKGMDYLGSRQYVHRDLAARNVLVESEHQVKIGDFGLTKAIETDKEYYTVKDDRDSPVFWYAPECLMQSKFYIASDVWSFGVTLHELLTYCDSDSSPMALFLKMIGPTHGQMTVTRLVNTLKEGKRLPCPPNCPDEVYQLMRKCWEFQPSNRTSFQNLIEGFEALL
T3 sequence (P52333 822-1111 limits assumed): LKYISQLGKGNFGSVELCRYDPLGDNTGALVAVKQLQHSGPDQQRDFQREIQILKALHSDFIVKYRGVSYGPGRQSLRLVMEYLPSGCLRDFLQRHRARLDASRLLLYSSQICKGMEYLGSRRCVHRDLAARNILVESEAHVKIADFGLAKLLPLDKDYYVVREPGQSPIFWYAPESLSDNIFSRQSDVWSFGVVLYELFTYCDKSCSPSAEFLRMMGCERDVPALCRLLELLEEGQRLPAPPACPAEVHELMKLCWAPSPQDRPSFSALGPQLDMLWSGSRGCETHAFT
T2 sequence (O60674 849-1124 limits assumed): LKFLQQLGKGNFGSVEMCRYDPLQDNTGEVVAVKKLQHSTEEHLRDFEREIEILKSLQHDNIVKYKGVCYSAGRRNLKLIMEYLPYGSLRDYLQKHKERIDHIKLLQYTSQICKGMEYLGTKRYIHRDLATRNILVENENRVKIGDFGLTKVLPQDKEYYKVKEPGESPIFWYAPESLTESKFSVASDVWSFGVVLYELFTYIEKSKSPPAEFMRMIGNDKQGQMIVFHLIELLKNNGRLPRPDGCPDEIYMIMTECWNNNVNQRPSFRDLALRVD

IC50 (TYK2 JH2 pseudokinase): 0.26 nM
Molecule: CCONC(=O)c1nnc(NC(=O)C2CC2)cc1Nc1cccc(-c2ncn(CC(F)F)n2)c1OC [Compound 5, 6-(Cyclopropylcarboxamido)-4-((3-(1-(2,2-difluoroethyl)-1H-1,2,4-triazol-3-yl)-2-methoxyphenyl)amino)-N-ethoxypyridazine-3-carboxamide]

IC50 (JAK1 JH1): > 10 µM | IC50 (JAK2 JH1): > 10 µM | IC50 (JAK3 JH1): > 10 µM | IC50 (TYK2 JH1): > 10 µM | IC50 (TYK2 JH2 pseudokinase): 0.19 nM
Molecule: CCONC(=O)c1nnc(NC(=O)C2CC2)cc1Nc1cccc(-c2ncn(CCOC)n2)c1OC [Compound 2, 6-(Cyclopropylcarboxamido)-N-ethoxy-4-((2-methoxy-3-(1-(2-methoxyethyl)-1H-1,2,4-triazol-3-yl)phenyl)amino)pyridazine-3-carboxamide]
IC50 ([1]; 20 min): > 30000 nM

IC50 (TYK2 JH2 pseudokinase): 0.42 nM
Molecule: CCONC(=O)c1nnc(NC(=O)C2CC2)cc1Nc1cccc(-c2ncn(CCCC(=O)O)n2)c1OC [Compound 9, 4-(3-(3-((6-(Cyclopropylcarboxamido)-3-(ethoxycarbamoyl)pyridazine-4-yl)amino)-2-methoxyphenyl)-1H-1,2,4-triazol-1-yl)butanoic acid]

IC50 (JAK1 JH1): > 10 µM | IC50 (JAK2 JH1): > 10 µM | IC50 (JAK3 JH1): > 10 µM | IC50 (TYK2 JH1): > 10 µM | IC50 (TYK2 JH2 pseudokinase): 0.21 nM
Molecule: CCONC(=O)c1nnc(NC(=O)C2CC2)cc1Nc1cccc(-c2nc[nH]n2)c1OC [Compound 1, 6-(Cyclopropylcarboxamido)-N-ethoxy-4-((2-methoxy-3-(1H-1,2,4-triazol-3-yl)phenyl)amino)pyridazine-3-carboxamide]
IC50 ([1]; 20 min): > 30000 nM

IC50 (TYK2 JH2 pseudokinase): 0.29 nM
Molecule: CCONC(=O)c1nnc(NC(=O)C2CC2)cc1Nc1cccc(-c2ncn(CC(=O)O)n2)c1OC [Compound 7, 2-(3-(3-((6-(Cyclopropylcarboxamido)-3-(ethoxycarbamoyl)pyridazine-4-yl)amino)-2-methoxyphenyl)-1H-1,2,4-triazol-1-yl)acetic acid]

IC50 (TYK2 JH2 pseudokinase): 0.18 nM
Molecule: CCONC(=O)c1nnc(NC(=O)C2CC2)cc1Nc1cccc(-c2ncn(CCF)n2)c1OC [Compound 4, 6-(Cyclopropylcarboxamido)-N-ethoxy-4-((3-(1-(2-fluoroethyl)-1H-1,2,4-triazol-3-yl)-2-methoxyphenyl)amino)pyridazine-3-carboxamide]

IC50 (TYK2 JH2 pseudokinase): 0.29 nM
Molecule: CCONC(=O)c1nnc(NC(=O)C2CC2)cc1Nc1cccc(-c2ncn(CCC(=O)O)n2)c1OC [Compound 8, 3-(3-(3-((6-(Cyclopropylcarboxamido)-3-(ethoxycarbamoyl)pyridazine-4-yl)amino)-2-methoxyphenyl)-1H-1,2,4-triazol-1-yl)propanoic acid]

IC50 (TYK2 JH2 pseudokinase): 0.28 nM
Molecule: CCONC(=O)c1nnc(NC(=O)C2CC2)cc1Nc1cccc(-c2ncn(CCO)n2)c1OC [Compound 10, 6-(Cyclopropylcarboxamide)-N-ethoxy-4-((3-(1-(2-hydroxyethyl)-1H-1,2,4-triazol-3-yl)-2-methoxyphenyl)amino)pyridazine-3-carboxamide]

Molecule: BMS-986165 [reference compound]
IC50 [1]: 409 nM
